Results reported in patent US5789404A, “3-substituted 1-arylindole compounds” (H. Lundbeck A/S, priority 1993, dated 1998).
Counter-ions that a name gives are not always drawn.

Legend:
[1] = molecular target: dopamine D2 receptors (Rattus norvegicus, UniProt P61169); experiment: biochemical; type: binding; conditions: read-out: Dopamin D2 binding ^3 H spiroperidol, IC50
Protocol: Inhibition of ^3 H-Spiroperidol Binding to Dopamine D2 Receptors in Rat Corpus Striatum in vitro
By this method the inhibition by drugs of the binding of ^3 H-spiroperidol (0.5 nM) to dopamine D2 receptors in membranes from rat corpus striatum is determined in vitro.

[2] = molecular target: T1, 5-HT2 receptors (Rattus norvegicus, UniProt P14842); experiment: Inhibition of ^3 H-Ketanserin Binding to 5-HT2 Receptors in Rat Cortex in vitro; conditions: ^3 H-Ketanserin 0,5 nM; rat cortex membranes; read-out: 5-HT2 binding ^3 H ketanserin, IC50
T1 construct: 5-HT2 Receptors in Rat Cortex in vitro; from tissue; host or cells: rat cortex membranes
T1 sequence (P14842 whole entry): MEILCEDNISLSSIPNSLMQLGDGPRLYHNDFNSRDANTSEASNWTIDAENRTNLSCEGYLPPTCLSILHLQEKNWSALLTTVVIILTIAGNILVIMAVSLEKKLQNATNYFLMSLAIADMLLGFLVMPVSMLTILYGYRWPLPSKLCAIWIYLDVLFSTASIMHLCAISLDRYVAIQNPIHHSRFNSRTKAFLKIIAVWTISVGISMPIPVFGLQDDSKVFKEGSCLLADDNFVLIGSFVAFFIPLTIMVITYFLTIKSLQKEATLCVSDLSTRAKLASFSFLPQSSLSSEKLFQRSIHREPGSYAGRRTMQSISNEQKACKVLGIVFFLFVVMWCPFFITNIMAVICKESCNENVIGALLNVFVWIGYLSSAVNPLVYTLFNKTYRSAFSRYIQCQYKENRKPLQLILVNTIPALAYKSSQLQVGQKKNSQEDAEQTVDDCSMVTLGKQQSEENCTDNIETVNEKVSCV
Protocol: Inhibition of ^3 H-Ketanserin Binding to 5-HT2 Receptors in Rat Cortex in vitro
By this method the inhibition by drugs of the binding of ^3 H-Ketanserin (0,5 nM) to 5-HT2 receptors in membranes from rat is determined in vitro. The method is described in Hyttel, Pharmacol. & Toxicol.

[3] = in vivo; cited from earlier work
[4] = in vivo; cited from earlier work; remark: listed apart in the source
[5] = in vivo; cited from earlier work; remark: listed apart in the source
[6] = in vivo; cited from earlier work; remark: listed apart in the source
[7] = in vivo; cited from earlier work; remark: listed apart in the source

dopamine D2 receptors, sequence (P61169 whole entry): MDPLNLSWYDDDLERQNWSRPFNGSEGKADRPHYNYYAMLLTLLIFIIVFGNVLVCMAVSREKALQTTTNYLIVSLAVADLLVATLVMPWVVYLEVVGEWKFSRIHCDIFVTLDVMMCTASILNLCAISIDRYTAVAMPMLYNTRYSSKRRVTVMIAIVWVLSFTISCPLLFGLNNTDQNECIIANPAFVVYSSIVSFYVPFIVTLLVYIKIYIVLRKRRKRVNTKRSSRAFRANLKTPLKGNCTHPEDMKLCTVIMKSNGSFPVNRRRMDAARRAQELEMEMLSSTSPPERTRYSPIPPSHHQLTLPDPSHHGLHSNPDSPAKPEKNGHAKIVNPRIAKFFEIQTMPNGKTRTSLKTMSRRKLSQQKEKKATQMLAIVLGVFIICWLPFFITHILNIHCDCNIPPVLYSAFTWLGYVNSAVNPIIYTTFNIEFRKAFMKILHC

Work on CN(C)CCOc1cn(-c2ccc(F)cc2)c2ccc(Br)cc12 [Compound 16a, N,N-Dimethyl-2-[5-bromo-1-(4-fluorophenyl)-1H-indol-3-yloxy]ethylamine, Hydrochloride] yielded an IC50 [1] of 6.2 nM and an IC50 [2] of 7 nM.
CN(C)CCOc1cn(-c2ccc(F)cc2)c2ccc(C#N)cc12 [Compound 17a, N,N-Dimethyl-2-[5-cyano-1-(4-fluorophenyl)-1H-indol-3-yloxy]ethylamine, Hydrochloride] gave an IC50 [1] of 0.98 nM and an IC50 [2] of 21 nM.
For Cc1nc2sccn2c(=O)c1CCN1CCC(=C(c2ccc(F)cc2)c2ccc(F)cc2)CC1 [ritanserin], the “abuse of alcohol and drugs” value [3] is listed as “reduce abuse of alcohol and drugs”, the quality of sleep [4] is listed as “improve the quality of sleep” and the neuroleptic-induced parkinsonism [5] is listed as “relieve neuroleptic-induced parkinsonism”. The “antidepressant effect / depressive symptoms of schizophrenia” value [6] was “shown to be an antidepressant and to improve depressive symptoms of schizophrenia” and the “effects in an animal test indicative of anxiolytic drug activity” value [7] was “exert effects in an animal test indicative of anxiolytic drug activity”.
